# What was measured:
# Human plasma kallikrein = biological target: T1, Human plasma kallikrein (Homo sapiens, UniProt P03952); test: Plasma Kallikrein Assay; assay type: biochemical; conditions: purified Human plasma kallikrein 0.5 nM, substrate Acetyl-K-P-R-AFC, HEPES pH 7.4; read-out: PKal IC50
# T1 construct: yields a heavy chain (371 amino acids) and a light chain (248 amino acids); The active site of plasma kallikrein is contained in the light chain; purchased Enzyme Research Laboratories
# Description: (§1) The effectiveness of a compound of the present invention as an inhibitor of plasma kallikrein can be determined using a relevant purified serine protease, and an appropriate synthetic substrate. The rate of hydrolysis of the chromogenic or fluorogenic substrate by the relevant serine protease was measured both in the absence and presence of compounds of the present invention. Assays were conducted at rt or at 37° C. […] A decrease in the rate of fluorescence change in the presence of inhibitor is indicative of enzyme inhibition. Such methods are known to one skilled in the art. The results of this assay are expressed as the half-maximal inhibitory concentrations (IC50), or the inhibitory constant, Ki.
# Plasma kallikrein determinations were made in 50 mM HEPES buffer at pH 7.4 containing 150 mM NaCl, 5 mM CaCl2), and 0.1% PEG 8000 (polyethylene glycol; Fisher Scientific). Determinations were made using purified Human plasma kallikrein at a final concentration of 0.5 nM (Enzyme Research Laboratories) and the synthetic substrate, Acetyl-K—P—R-AFC (Sigma #C6608) at a concentration of […].
# Times required to achieve equilibration between enzyme and inhibitor were determined in control experiments. […] IC50 was determined by inflection point from a four parameter logistic curve fit. Ki was calculated using the Cheng Prusoff equation, Ki=IC50/[…](1+([S]/Km)).
# human factor XIa = human factor XIa (Homo sapiens, UniProt P03951); test: Factor XIa Assay; assay type: biochemical; conditions: human factor XIa 0.04 nM, substrate GPR-AFC, 30 min pre-incubation, 25° C., pH 7.4; read-out: FXIa IC50
# human factor XIa, sequence (P03951 388-625 limits assumed): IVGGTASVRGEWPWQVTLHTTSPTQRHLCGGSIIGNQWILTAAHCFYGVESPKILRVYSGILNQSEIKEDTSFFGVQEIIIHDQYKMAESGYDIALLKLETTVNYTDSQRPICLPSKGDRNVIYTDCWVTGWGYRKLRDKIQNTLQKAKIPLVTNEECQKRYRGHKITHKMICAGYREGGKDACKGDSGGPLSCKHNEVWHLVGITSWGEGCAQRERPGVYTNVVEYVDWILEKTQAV
# human factor XIa, sequence (P03951 19-387 partner limits assumed): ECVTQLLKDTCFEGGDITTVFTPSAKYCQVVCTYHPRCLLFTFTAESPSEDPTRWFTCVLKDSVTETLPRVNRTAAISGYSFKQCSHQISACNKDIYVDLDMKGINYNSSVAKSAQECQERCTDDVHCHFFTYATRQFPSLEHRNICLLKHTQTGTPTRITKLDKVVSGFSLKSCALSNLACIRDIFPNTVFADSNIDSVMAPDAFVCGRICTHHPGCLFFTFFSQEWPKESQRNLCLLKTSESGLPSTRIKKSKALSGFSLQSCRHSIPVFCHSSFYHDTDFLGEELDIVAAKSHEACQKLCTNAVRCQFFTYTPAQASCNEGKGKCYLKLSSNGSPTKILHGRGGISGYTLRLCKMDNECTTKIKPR
# Description: as §1, with “Coagulation factor XIa” for “plasma kallikrein”
# Compounds were pre-incubated for 30 min at 25° C. with human (0.04 nM) factor XIa in 50 mM HEPES buffer with 150 mM sodium chloride, 5 mM calcium chloride, 0.1% PEG 8000, pH 7.4. factor XIa enzymatic activity was determined by addition of the substrate glycine-proline-arginine-7-amido-4-trifluoromethylcoumarin (GPR-AFC) and measurement of the fluorescence at 400/505 nm after a 60 min incubation at 25° C. The % inhibition for each data point was calculated from the data and analyzed using the log (inhibitor) vs. response four parameters equation to determine the half-maximal inhibitory concentrations (IC50). The IC50 were converted to equilibrium inhibitory constants (Ki) using the Cheng-Prusoff equation.
# T1 sequence (P03952 391-638 limits assumed): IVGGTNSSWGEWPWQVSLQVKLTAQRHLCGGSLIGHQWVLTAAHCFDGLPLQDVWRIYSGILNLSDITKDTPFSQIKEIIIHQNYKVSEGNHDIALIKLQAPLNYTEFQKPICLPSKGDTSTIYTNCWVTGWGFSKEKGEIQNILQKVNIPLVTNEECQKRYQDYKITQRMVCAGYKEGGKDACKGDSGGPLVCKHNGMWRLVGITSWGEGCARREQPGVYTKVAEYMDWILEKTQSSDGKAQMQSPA
# T1 sequence (P03952 20-390 partner limits assumed): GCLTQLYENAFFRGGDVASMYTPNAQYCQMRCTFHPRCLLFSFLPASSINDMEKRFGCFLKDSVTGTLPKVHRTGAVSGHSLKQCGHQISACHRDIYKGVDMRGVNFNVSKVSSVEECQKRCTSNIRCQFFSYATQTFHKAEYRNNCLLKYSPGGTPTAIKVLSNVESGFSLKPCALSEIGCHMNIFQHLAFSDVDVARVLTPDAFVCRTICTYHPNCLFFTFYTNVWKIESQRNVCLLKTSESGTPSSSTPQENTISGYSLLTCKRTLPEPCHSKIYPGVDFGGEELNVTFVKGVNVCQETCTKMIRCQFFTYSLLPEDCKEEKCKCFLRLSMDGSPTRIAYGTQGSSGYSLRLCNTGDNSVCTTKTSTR
SMILES,IC50 (Human plasma kallikrein),IC50 (human factor XIa)
"Nc1c(C(=O)N2CCC[C@@]3(C2)OC(=O)Nc2ccc(Cl)c(F)c23)cnn1-c1cccc2c1OC(F)(F)O2 [Example 91, (R)-1'-(5-Amino-1-(2,2-difluorobenzo[d][1,3]dioxol-4-y1)-1H-pyrazole-4-carbonyl)-6-chloro-5-fluorospiro[benzo[d][1,3]oxazine-4,3'-piperidin]-2(1H)-one]",5.8 nM,525 nM
"Nc1c(C(=O)N2CCC[C@@]3(C2)OC(=O)Nc2ccc(Cl)c(F)c23)cnn1C1(C(F)(F)F)CCC1 [Example 47, (R)-1'-(5-Amino-1-(1-(trifluoromethyl)cyclobutyl)-1H-pyrazole-4-carbonyl)-6-chloro-5-fluorospiro[benzo[d][1,3]oxazine-4,3'-piperidin]-2(1H)-one]",6.3 nM,731 nM
"COc1ccccc1-n1ncc(C(=O)N2CCC[C@@]3(C2)OC(=O)Nc2ccc(Cl)c(F)c23)c1N [Example 79, (R)-1'-(5-Amino-1-(2-methoxyphenyl)-1H-pyrazole-4-carbonyl)-6-chloro-5-fluorospiro[benzo[d][1,3]oxazine-4,3'-piperidin]-2(1H)-one]",5.8 nM,377 nM
"COC(=O)c1ccc(-n2ncc(C(=O)N3CCC[C@@]4(C3)OC(=O)Nc3ccc(Cl)c(F)c34)c2N)c(OC)c1 [Example 92, Methyl (R)-4-(5-amino-4-(6-chloro-5-fluoro-2-oxo-1,2-dihydrospiro[benzo[d][1,3]oxazine-4,3'-piperidine]-l'-carbonyl)-1H-pyrazol-1-yl)-3-methoxybenzoate]",13.2 nM,1710 nM
"Nc1c(C(=O)N2CCC[C@@]3(C2)OC(=O)Nc2ccc(Cl)c(F)c23)cnn1C1CCOCC1 [Example 18, (R)-1'-(5-Amino-1-(tetrahydro-2H-pyran-4-y1)-1H-pyrazole-4-carbonyl)-6-chloro-5-fluorospiro[benzo[d][1,3]oxazine-4,3'-piperidin]-2(1H)-one]",39.1 nM,1650 nM
"Nc1c(C(=O)N2CCC[C@@]3(C2)OC(=O)Nc2ccc(Cl)c(F)c23)cnn1-c1cc(F)ccc1OC(F)F [Example 106, (R)-1'-(5-Amino-1-(2-(difluoromethoxy)-5-fluorophenyl)-1H-pyrazole-4-carbonyl)-6-chloro-5-fluorospiro[benzo[d][1,3]oxazine-4,3'-piperidin]-2(1H)-one]",34.8 nM,1070 nM
"CC(=O)Nc1cccc(-n2ncc(C(=O)N3CCC[C@@]4(C3)OC(=O)Nc3ccc(Cl)c(F)c34)c2N)c1 [Example 71, (R)-N-(3-(5-Amino-4-(6-chloro-5-fluoro-2-oxo-1,2-dihydrospiro[benzo[d][1,3]oxazine-4,3'-piperidine]-1'-carbonyl)-1H-pyrazol-1-yl)phenyl)acetamide]",36.6 nM,4050 nM
"CC(n1ncc(C(=O)N2CCC[C@@]3(C2)OC(=O)Nc2ccc(Cl)c(F)c23)c1N)C(F)(F)F (single isomer, unassigned) [Example 121, (R)-1'-(5-Amino-1-((S or R)-1,1,1-trifluoropropan-2-y1)-1H-pyrazole-4-carbonyl)-6-chloro-5-fluorospiro[benzo[d][1,3]oxazine-4,3'-piperidin]-2(1H)-one]",4.9 nM,591 nM
"CCC(c1ccccc1)n1ncc(C(=O)N2CCC[C@@]3(C2)OC(=O)Nc2ccc(Cl)c(F)c23)c1N (single isomer, unassigned) [Example 116, (R)-1'-(5-Amino-1-((S or R)-1-phenylpropyl)-1H-pyrazole-4-carbonyl)-6-chloro-5-fluorospiro[benzo[d][1,3]oxazine-4,3'-piperidin]-2(1H)-one]",0.7 nM,4 nM
"Nc1c(C(=O)N2CCC[C@@]3(C2)OC(=O)Nc2ccc(Cl)c(F)c23)cnn1-c1ccc(N2CCOC2=O)cc1 [Example 75, (R)-1'-(5-Amino-1-(4-(2-oxooxazolidin-3-yl)phenyl)-1H-pyrazole-4-carbonyl)-6-chloro-5-fluorospiro[benzo[d][1,3]oxazine-4,3'-piperidin]-2(1H)-one]",50.7 nM,4720 nM
"CCC(n1ncc(C(=O)N2CC(C)(C)C[C@@]3(C2)OC(=O)Nc2ccc(Cl)c(F)c23)c1N)C(F)(F)F (single isomer, unassigned) [Example 130, (R)-1'-(5-Amino-1-((R or S)-1,1,1-trifluorobutan-2-y1)-1H-pyrazole-4-carbonyl)-6-chloro-5-fluoro-5',5'-dimethylspiro[benzo[d][1,3]oxazine-4,3'-piperidin]-2(1H)-one]",1.6 nM,8 nM
"COc1ccc(-n2ncc(C(=O)N3CCC[C@@]4(C3)OC(=O)Nc3ccc(Cl)c(F)c34)c2N)cc1 [Example 58, (R)-1'-(5-Amino-1-(4-methoxyphenyl)-1H-pyrazole-4-carbonyl)-6-chloro-5-fluorospiro[benzo[d][1,3]oxazine-4,3'-piperidin]-2(1H)-one]",39.7 nM,3130 nM
"Nc1c(C(=O)N2CCC[C@@]3(C2)OC(=O)Nc2ccc(Cl)c(F)c23)cnn1C(C(F)(F)F)C1(F)CC1 (single isomer, unassigned) [Example 114, (R)-1'-(5-Amino-1-((R or S)-2,2,2-trifluoro-1-(1-fluorocyclopropyl)ethyl)-1H-pyrazole-4-carbonyl)-6-chloro-5-fluorospiro[benzo[d][1,3]oxazine-4,3'-piperidin]-2(1H)-one]",2.8 nM,103 nM
"CCc1ccccc1-n1ncc(C(=O)N2CCC[C@@]3(C2)OC(=O)Nc2ccc(Cl)c(F)c23)c1N [Example 80, (R)-1'-(5-Amino-1-(2-ethylphenyl)-1H-pyrazole-4-carbonyl)-6-chloro-5-fluorospiro[benzo[d][1,3]oxazine-4,3'-piperidin]-2(1H)-one]",11.6 nM,325 nM
"Cc1ccccc1-n1ncc(C(=O)N2CCC[C@@]3(C2)OC(=O)Nc2ccc(Cl)c(F)c23)c1N [Example 64, (R)-1'-(5-Amino-1-(o-toly1)-1H-pyrazole-4-carbonyl)-6-chloro-5-fluorospiro[benzo[d][1,3]oxazine-4,3'-piperidin]-2(1H)-one]",28.1 nM,1310 nM
"Nc1c(C(=O)N2CCC[C@@]3(C2)OC(=O)Nc2ccc(Cl)c(F)c23)cnn1C1(C(F)(F)F)CC[C@@H]2C[C@@H]21 (single isomer, unassigned) [Example 56, (R)-1'-(5-Amino-1-((1S,2S or R,5R)-2-(trifluoromethyl)bicyclo[3.1.0]hexan-2-y1)-1H-pyrazole-4-carbonyl)-6-chloro-5-fluorospiro[benzo[d][1,3]oxazine-4,3'-piperidin]-2(1H)-one]",2.9 nM,932 nM
"Nc1c(C(=O)N2CCC[C@@]3(C2)OC(=O)Nc2ccc(Cl)c(F)c23)cnn1-c1ccccc1Br [Example 83, (R)-1'-(5-Amino-1-(2-bromophenyl)-1H-pyrazole-4-carbonyl)-6-chloro-5-fluorospiro[benzo[d][1,3]oxazine-4,3'-piperidin]-2(1H)-one]",35.5 nM,862 nM
"Nc1c(C(=O)N2CCC[C@@]3(C2)OC(=O)Nc2ccc(Cl)c(F)c23)cnn1CCc1ccccc1 [Example 16, (R)-1'-(5-Amino-1-phenethyl-1H-pyrazole-4-carbonyl)-6-chloro-5-fluorospiro[benzo[d][1,3]oxazine-4,3'-piperidin]-2(1H)-one]",4.1 nM,441 nM
"Nc1c(C(=O)N2CCC[C@@]3(C2)OC(=O)Nc2ccc(Cl)c(F)c23)cnn1C1(c2ccc(F)cc2)CCC1 [Example 46, (R)-1'-(5-Amino-1-(1-(4-fluorophenyl)cyclobutyl)-1H-pyrazole-4-carbonyl)-6-chloro-5-fluorospiro[benzo[d][1,3]oxazine-4,3'-piperidin]-2(1H)-one]",1.2 nM,167 nM
"Cc1ccc(Cn2ncc(C(=O)N3CCC[C@@]4(C3)OC(=O)Nc3ccc(Cl)c(F)c34)c2N)cc1 [Example 7, (R)-1'-(5-Amino-1-(4-methylbenzyl)-1H-pyrazole-4-carbonyl)-6-chloro-5-fluorospiro[benzo[d][1,3]oxazine-4,3'-piperidin]-2(1H)-one]",0.5 nM,201 nM

# Reference: patent US12679848B2, “Plasma kallikrein inhibitors” (Merck Sharp & Dohme LLC, priority 2020, dated 2026)
